Results published in patent US20220249399A1, “COMPOSITION COMPRISING AN ANTI-OXIDANT TO PRESERVE CORNEAL TISSUE” (University of lowa Research Foundation, priority 2019, published 2022).

Tests used:
[1] = test system: A549 human lung cancer cells; assay: ROS assay, dihydroethidium (DHE) fluorescence by flow cytometry, with or without antimycin A; assay type: cell-based; settings: for ROS levels (DHE fluorescence) with antimycin A (AM): AM as ROS inducer, p<0.05
Method: A549 human lung cancer cells were seeded in 6-well plates at 200,000 cells/well for 40 hours, then the medium was removed, and treatments were added. Ubiquinol (coQ10) was dispersed in RPMI medium at three different concentrations (100, 50, and 10 μM) and added to wells (n=3 each), then the volume of each well was completed to 4 ml with medium. Ubiquinol-γ-cyclodextrin (1:10 molar ratio) complex dispersed in RPMI at three different concentrations (equivalent to 100, 50, and 10 μM of ubiquinol) and added to wells (n=3/each) and the volume of the each well was completed to 4 ml with medium._γ-cyclodextrin was added in amounts equivalent to those associated with 100, 50, and 10 μM of the complex to each well (n=3/each) and the volume of the each well was completed to 4 ml with medium._Six wells were left untreated._After 24 h, media were removed, and wells were washed with 5 mM sodium pyruvate in PBS, trypsinized, then collected in 15 ml tubes by centrifugation. Cells were washed with 5 mM sodium pyruvate in PBS, then re-suspended in 1 ml of the same solution._The reagents were added as described in FIG. 14, then incubated at 40 min._Cells were re-suspended and transferred to round-bottom tubes, and analyzed by flow Cytometry.

[2] = test system: primary cultures of corneal endothelial cells; assay: Seahorse XFe96 mitochondrial respiration of primary cultures of corneal endothelial cells; assay type: cell-based, human; settings: uncomplexed coenzyme Q10 (100 μM) or cyclodextrin alone vs diluent control
Method: (§1) Human corneas were obtained by Iowa Lions Eye Bank (ILEB) from nondiabetic donors 60-75 years old and stored in Optisol GS (Bausch+Lomb, Irvine, Calif.) at 4° C. following procurement in accordance with Eye Bank Association of America and ILEB policies and procedures. Endothelial cells were isolated and cultured in Seahorse XFe96 well plates until they reached confluency. Purity of cell cultures were confirmed with anti-zonula occludens 1 (ZO-1) labeling of cellular tight junctions. Once confluent, cells were treated with different concentrations of cyclodextrin-coenzyme Q10 complex in culture (1 μM, 10 μM, or 100 μM) uncomplexed coenzyme Q10 (100 μM), cyclodextrin alone, or diluent control. Mitochondrial respiration was assayed by measuring oxygen consumption using the Seahorse XFe96 Extracellular Flux Analyzer (Agilent Technologies, Santa Clara, Calif.) over 120 minutes (9-minute intervals). Wells were labeled with a nuclear counterstain (DAPI) and nuclei were counted in each well to normalize respirometry data.
Seahorse respiration assays were conducted with MitoQ with doses ranging from 0 to 10 μM. All experiments were performed on corneal endothelial cells in culture and analyzed using the XFe96 Extracellular Flux Analyzer.
as §1, with “MitoQ with doses ranging from 0 to” for “different concentrations of cyclodextrin-coenzyme Q10 complex in culture (1 μM,”, “μM.” for “μM, or 100 μM) uncomplexed coenzyme Q10 (100 μM), cyclodextrin alone, or diluent control.”

[3] = Dispersibility and solubility in water, solvents and media; assay type: physicochemical; settings: for solubility in cell culture: cell culture environments (primary cultures)
Method: 50 mg of kneaded complex added to 10 ml H2O and shaken for 2 hours.
In FIG. 10, the image on the right is 5 mg of CoQ10 added to 10 ml H2O and shaken for 2 hours.
Paired corneas were supplemented with 10 μM ubiquinol (Fuller et al., 2006) (USP analytical standard, Sigma Aldrich, St. Louis, Mo.), 100 μM palmitate-BSA (Pfleger et al., 2015) (Agilent, Santa Clara, Calif.), or diluent only for 5 days, such that one cornea from a donor received treatment while its mate from the same donor was a control. Concentrations were chosen based on previously published studies (Fuller et al., 2006; Pfleger et al., 2015). Diluents were chosen based on supplement solubility. Although several diluents were tried for ubiquinol (water, Optisol-GS, DMSO and ethanol), ethanol was chosen based on its ability to solubilize ubiquinol most successfully. No complexing agents were used to solubilize ubiquinol. Following the 5 days of storage with supplementation, tissues were processed for metabolic and cell viability assays as described below.
Due to its long hydrocarbon side chain, ubiquinol is difficult to solubilize in biocompatible solvents. In this series, several attempts were made to bring this lipid-soluble molecule into aqueous solution. First, ubiquinol was attempted to be dissolved using polar […] known to be biocompatible with CECs (Optisol-GS, water) based on the goal of achieving a high bioavailability for clinical applications. […] Next two organic polar […] solvents, DMSO and absolute ethanol, were tested. DMSO commonly is used as a solvent in cell biology and biochemistry, and both DMSO and ethanol can solubilize hydrocarbons. […] In addition to its lipophilicity, native ubiquinol is also unstable. Although not encountered in this series ubiquinol oxidizes in the presence of oxygen and light and turns yellow, indicating the formation of its oxidized form, ubiquinone. It is therefore necessary to improve the solubility and handleability of ubiquinol for future validations of its effects on oxidative stress related pathways.

[4] = test system: human donor corneal endothelial cells; assay: Mitochondrial respiration assay (Seahorse XFe24 extracellular flux analyzer) of donor corneal endothelium after storage in supplemented Optisol GS; assay type: cell-based; settings: 1 μM coQ10, tissues in storage

ubiquinol
ROS inhibition with an increase in concentration ([1]; 10, 50, 100 μM ubiquinol or equivalent): does not result in any significant change in ROS inhibition
ROS levels (DHE fluorescence) with antimycin A (AM) ([1]; 24 h treatment, listed as Free ubiquinol): failed to decrease ROS levels after AM treatment
ROS levels (DHE fluorescence) with antimycin A (AM) ([1]; 24 h treatment, listed as free ubiquinol): unable to inhibit ROS
ROS levels (DHE fluorescence) without ROS induction by AM ([1]; 24 h treatment, no AM): decrease the ROS levels in the cells below the normal levels
mitochondrial spare respiratory capacity [2]: reduces mitochondrial spare respiratory capacity
solubility in Optisol-GS storage media after dissolving in ethanol [3]: appeared to remain in solution
dispersibility in water ([3]; 50 mg kneaded complex or 5 mg CoQ10 in 10 ml H2O, shaken for 2 hours): prefers to accumulate at the air-water interface or to adhere to the glass container
solubility in cell culture [3]: precipitated out of solution
solubility in cell culture ([3]; listed as coQ10): not soluble
solubility in DMSO ([3]; despite heating the solution): precipitated in DMSO
solubility in Optisol-GS, water ([3]; even after heating): precipitated out of these solutions
solubility in absolute ethanol ([3]; heated to 37° C., precipitates if not poured immediately into storage media): dissolved
proton leak [4]: no increase in proton leak
